# Source: patent publication US12496346B2, “Phospholipid-flavagline conjugates and methods of using the same for targeted cancer therapy” (Cellectar Biosciences, Inc., priority 2019, dated 2025)
# Key:
# [1] = system: NHDF (normal human dermal fibroblasts); assay: IC50 of PLE-flavagline conjugates in cell lines; type: cell-based; conditions: read-out: IC50 NHDF
# A375 and A549 cells = assay: FLV3 levels in cell lysate and growth media by LC/MS; type: cell-based, human; conditions: after 24 hours, CLR 1852 and FLV3 alone administered
# Description: The levels of FLV3 in cell lysate and growth media were measured using LC/MS. […] Levels of intracellular FLV3 appeared to plateau at 24 hours, while extracellular levels of FLV3 continued to increase.
# in vivo = type: in vivo, mice
# Description: Listed in Table 5 are the doses administered to the mice, and how many mice were alive after treatment (“3/3” indicates 3 out of 3 mice were alive). […] MTD for CLR 1865 was between 5 and 10 mg/kg.
# [2] = system: A375 (human malignant melanoma); assay: IC50 of PLE-flavagline conjugates in cell lines; type: cell-based; conditions: A-375, read-out: IC50 A375
# [3] = system: HCT 116 (human colon cancer); assay: IC50 of PLE-flavagline conjugates in cell lines; type: cell-based; conditions: HCT-116, read-out: IC50 HCT 116
# [4] = system: A549 (human lung adenocarcinoma); assay: cells; type: cell-based
# [5] = In vitro cytotoxicity of CLR 1899; type: cell-based; conditions: human, NHDF (normal dermal fibroblasts); read-out: Minimum % viability
# Description: CLR 1899 was administered to cell lines A375 (human malignant melanoma), A549 (human lung adenocarcinoma), HCT 116 (human colon cancer), and NHDF (normal human dermal fibroblasts).
# [6] = In vivo tolerability, body weight changes; design: species or system C57BL/6 mice; conditions: intravenous, repeat dosing, 0.5, 1.0 or 2.0 mg/kg
# Description: To determine whether CLR 1899 is tolerated in vivo, the compound was administered intravenously to healthy C57BL/6 mice at dose levels of 0.5 mg/kg, 1.0 mg/kg, or 2.0 mg/kg, and body weight changes were observed (FIG. 12). […] The in vivo efficacy of CLR 1899 was studied in MCF-7 xenograft model (FIG. 13, 10 mice per dose group). Reduction in tumor volume was recorded.
# [7] = system: Caki-2 tumor cells (human clear cell renal cell carcinoma); assay: Selective uptake of PDC in co-culture; type: cell-based; conditions: 5 μM, 24 hours, co-culture with normal fibroblast
# Description: (§2) Normal fibroblast and Caki-2 tumor cells (human clear cell renal cell carcinoma) were plated and co-cultured overnight (FIG. 1F). […] The next day cells were washed and co-stained with nucleus stain (Hoescht 33342). CLR 1501 was excited and then detected with an Alexa-Fluor 488 filter.
# Prostate MatLyLu = assay: Tumor uptake of PLE; type: in vivo; conditions: Rat, Adenocarcinoma
# Description: (§1) Tumor cell uptake was measured continuously for 24 hours.
# Pancreatic Kras = assay: Tumor uptake of PLE; type: in vivo; conditions: Endogenous Mouse, Adenocarcinoma
# Description: as §1
# Hepatocellular Carcinoma = assay: Tumor uptake of PLE; type: in vivo; conditions: Endogenous Mouse, Adenocarcinoma
# Description: as §1
# Retinoblastoma = assay: Tumor uptake of PLE; type: in vivo; conditions: Endogenous Mouse, Blastoma
# Description: as §1
# Mammary SCC = assay: Tumor uptake of PLE; type: in vivo; conditions: Apc^Min/+ mouse, Squamous cell carcinoma
# Description: as §1
# Ovarian HTB-77 = assay: Tumor uptake of PLE; type: in vivo; conditions: Nude Mouse, Adenocarcinoma
# Description: as §1
# Prostate PC-3 = assay: Tumor uptake of PLE; type: in vivo; conditions: SCID Mouse, Adenocarcinoma
# Description: as §1
# Walker-256 = assay: Tumor uptake of PLE; type: in vivo; conditions: Rat, Carcinosarcoma
# Description: as §1
# Prostate LuCap = assay: Tumor uptake of PLE; type: in vivo; conditions: Mouse, Adenocarcinoma
# Description: as §1
# Pancreatic c-myc = assay: Tumor uptake of PLE; type: in vivo; conditions: Endogenous Mouse, Adenocarcinoma
# Description: as §1
# Lung NCI H-69 (Oat Cell) = assay: Tumor uptake of PLE; type: in vivo; conditions: SCID Mouse, Adenocarcinoma
# Description: as §1
# Pancreatic Capan-1 = assay: Tumor uptake of PLE; type: in vivo; conditions: Nude Mouse, Adenocarcinoma
# Description: as §1
# Lung A-549 (NSCLC) = assay: Tumor uptake of PLE; type: in vivo; conditions: SCID Mouse, Adenocarcinoma
# Description: as §1
# Melanoma = assay: Tumor uptake of PLE; type: in vivo; conditions: Mouse, Adenocarcinoma
# Description: as §1
# Melanoma A-375 = assay: Tumor uptake of PLE; type: in vivo; conditions: Nude Mouse, Adenocarcinoma
# Description: as §1
# Colon LS-180 = assay: Tumor uptake of PLE; type: in vivo; conditions: Nude Mouse, Adenocarcinoma
# Description: as §1
# Colon CT-26 = assay: Tumor uptake of PLE; type: in vivo; conditions: SCID Mouse, Adenocarcinoma
# Description: as §1
# Renal Cell ACHN = assay: Tumor uptake of PLE; type: in vivo; conditions: Nude Mouse (orthotopic), Adenocarcinoma
# Description: as §1
# TRAMP prostate = assay: Tumor uptake of PLE; type: in vivo; conditions: Endogenous Mouse, Adenocarcinoma
# Description: as §1
# Adrenal RL-251 = assay: Tumor uptake of PLE; type: in vivo; conditions: SCID Mouse, Adenocarcinoma
# Description: as §1
# Glioma RG2 = assay: Tumor uptake of PLE; type: in vivo; conditions: Rat xenograft
# Description: as §1
# Cervical = assay: Tumor uptake of PLE; type: in vivo; conditions: Endogenous Mouse, Adenocarcinoma
# Description: as §1
# Glioma CNS1 = assay: Tumor uptake of PLE; type: in vivo; conditions: Rat xenograft
# Description: as §1
# Sarcoma (Meth-A) = assay: Tumor uptake of PLE; type: in vivo; conditions: Nude Mouse, Fibrosarcoma
# Description: as §1
# Glioma L9 = assay: Tumor uptake of PLE; type: in vivo; conditions: Rat xenograft
# Description: as §1
# SCC1 = assay: Tumor uptake of PLE; type: in vivo; conditions: Nude Mouse, Squamous cell carcinoma
# Description: as §1
# Mammary AC = assay: Tumor uptake of PLE; type: in vivo; conditions: Apc^Min/+ mouse, Adenocarcinoma
# Description: as §1
# Renal Cell Caki-2 = assay: Tumor uptake of PLE; type: in vivo; conditions: Nude Mouse (orthotopic), Adenocarcinoma
# Description: as §1
# Pancreatic BXPC3 = assay: Tumor uptake of PLE; type: in vivo; conditions: Nude Mouse, Adenocarcinoma
# Description: as §1
# Breast 4T1 = assay: Tumor uptake of PLE; type: in vivo; conditions: Endogenous Mouse (orthotopic), Adenocarcinoma
# Description: as §1
# Colon-51 = assay: Tumor uptake of PLE; type: in vivo; conditions: SCID Mouse, Colorectal adenocarcinoma
# Description: as §1
# ColonLS180 = assay: Tumor uptake of PLE; type: in vivo; conditions: SCID Mouse, Colorectal adenocarcinoma
# Description: as §1
# Prostate LnCap = assay: Tumor uptake of PLE; type: in vivo; conditions: Mouse, Adenocarcinoma
# Description: as §1
# Min Mouse Intestinal = assay: Tumor uptake of PLE; type: in vivo; conditions: Endogenous Mouse, Adenocarcinoma
# Description: as §1
# Glioma C6 = assay: Tumor uptake of PLE; type: in vivo; conditions: Rat xenograft
# Description: as §1
# SCC6 = assay: Tumor uptake of PLE; type: in vivo; conditions: Nude Mouse, Adenocarcinoma
# Description: as §1
# Esophageal = assay: Tumor uptake of PLE; type: in vivo; conditions: Endogenous Mouse, Adenocarcinoma
# Description: as §1
# Adrenal H-295 = assay: Tumor uptake of PLE; type: in vivo; conditions: SCID Mouse, Adenocarcinoma
# Description: as §1
# Colon HT-29 = assay: Tumor uptake of PLE; type: in vivo; conditions: SCID Mouse, Colorectal adenocarcinoma
# Description: as §1
# Colon DLDI = assay: Tumor uptake of PLE; type: in vivo; conditions: SCID Mouse, Colorectal adenocarcinoma
# Description: as §1
# Breast MCF-7 = assay: Tumor uptake of PLE; type: in vivo; conditions: Rat, Adenocarcinoma
# Description: as §1
# Normal fibroblast = assay: Selective uptake of PDC in co-culture; type: cell-based; conditions: 5 μM, 24 hours, co-culture with Caki-2
# Description: as §2
# [8] = system: Human prostate adenocarcinoma cells (PC3); assay: Co-localization with endoplasmic reticulum; type: cell-based; conditions: 5 μM, 24 hours, ER-tracker
# From the text: After washing, the cells were co-stained with ER-tracker® per protocol and imaged using Nikon A1R confocal light microscope. CLR 1501 and ER were excited and detected using Alexa-Fluor 488 using standard fluorescein filters.
# A549 cells = assay: Uptake of PDC after disruption of lipid rafts; type: cell-based, human; conditions: lipid rafts disrupted with methyl b-cyclodextrin vs untreated cells; 5 μM, 24 hours
# Description: A549 cells were plated overnight into separate wells.
# [9] = system: PC3 (grade IV, human prostate adenocarcinoma) cell lines; assay: Co-localization with mitochondria; type: cell-based; conditions: 5 μM, 24 hours, Mitotracker
# From the text: The cells were observed using Nikon A1R confocal microscope.
# [10] = system: Mammary alveolar hyperplasia; assay: Uptake in benign tissues; type: in vivo; conditions: Endogenous Mouse
# Intestinal Polyp = assay: Uptake in benign tissues; type: in vivo; conditions: Endogenous Mouse, Adenoma (benign)
structure (smiles),measurement,setting,value
COC(=O)[C@@H]1[C@H](O)[C@]2(O)c3c(OC)cc(OCCCCN)cc3O[C@]2(c2ccc(OC)cc2)[C@H]1c1ccccc1 [FLV3],IC50,[1],8 nM
same,levels of FLV3 in the cell lysate,A375 and A549 cells,high levels
same,levels of FLV3 in the growth media,A375 and A549 cells,Moderate levels
same,mice alive after treatment,in vivo; Dose 0.1 mg/kg,3/3
same,mice alive after treatment,in vivo; Dose 0.25 mg/kg,3/3
same,IC50,[2],15 nM
same,IC50,[3],9 nM
same,IC50,"[4]; Homo sapiens, A549, read-out: IC50 A549",90 nM
same,Therapeutic Index (TI),"[4]; in vitro, NHDF IC50 relative to cancer cell IC50",0.89
COC(=O)[C@H]1[C@@H](O)[C@@]2(O)c3c(OC)cc(OCCCCNC(=O)CNC(=O)CNC(=O)CNC(=O)c4ccc(CCCCCCCCCCCCCCCCCCOP(=O)([O-])OCC[N+](C)(C)C)cc4)cc3O[C@@]2(c2ccc(OC)cc2)[C@@H]1c1ccccc1 [CLR 1899],viability,[5],41.7%
same,toxicity or adverse events as measured by changes in weight,[6],no toxicity or adverse events
C[N+](C)(C)CCOP(=O)([O-])OCCCCCCCCCCCCCCCCCCc1ccc(C2=C3C=CC=[N+]3[B-](F)(F)n3cccc32)cc1 [CLR 1501],localization in Caki-2 cells,[7],highly localized
same,Tumor Uptake,Prostate MatLyLu,Yes
same,Tumor Uptake,Pancreatic Kras,Yes
same,Tumor Uptake,Hepatocellular Carcinoma,Yes
same,Tumor Uptake,Retinoblastoma,Yes
same,Tumor Uptake,Mammary SCC,Yes
same,Tumor Uptake,Ovarian HTB-77,Yes
same,Tumor Uptake,Prostate PC-3,Yes
same,Tumor Uptake,Walker-256,Yes
same,Tumor Uptake,Prostate LuCap,Yes
same,Tumor Uptake,Pancreatic c-myc,Yes
same,Tumor Uptake,Lung NCI H-69 (Oat Cell),Yes
same,Tumor Uptake,Pancreatic Capan-1,Yes
same,Tumor Uptake,Lung A-549 (NSCLC),Yes
same,Tumor Uptake,Melanoma,Yes
same,Tumor Uptake,Melanoma A-375,Yes
same,Tumor Uptake,Colon LS-180,Yes
same,Tumor Uptake,Colon CT-26,Yes
same,Tumor Uptake,Renal Cell ACHN,Yes
same,Tumor Uptake,TRAMP prostate,Yes
same,Tumor Uptake,Adrenal RL-251,Yes
same,Tumor Uptake,Glioma RG2,Yes
same,Tumor Uptake,Cervical,Yes
same,Tumor Uptake,Glioma CNS1,Yes
same,Tumor Uptake,Sarcoma (Meth-A),Yes
same,Tumor Uptake,Glioma L9,Yes
same,Tumor Uptake,SCC1,Yes
same,Tumor Uptake,Mammary AC,Yes
same,Tumor Uptake,Renal Cell Caki-2,Yes
same,Tumor Uptake,Pancreatic BXPC3,Yes
same,Tumor Uptake,Breast 4T1,Yes
same,Tumor Uptake,Colon-51,Yes
same,Tumor Uptake,ColonLS180,Yes
same,Tumor Uptake,Prostate LnCap,Yes
same,Tumor Uptake,Min Mouse Intestinal,Yes
same,Tumor Uptake,Glioma C6,Yes
same,Tumor Uptake,SCC6,Yes
same,Tumor Uptake,Esophageal,Yes
same,Tumor Uptake,Adrenal H-295,Yes
same,Tumor Uptake,Colon HT-29,Yes
same,Tumor Uptake,Colon DLDI,Yes
same,Tumor Uptake,Breast MCF-7,Yes
same,localization in normal fibroblast cells,Normal fibroblast,minimally
same,co-localization with ER,[8],co-localized with ER in malignant
same,reduction in uptake,A549 cells,60%
same,co-localization with mitochondria,[9],co-localized with mitochondria
C[N+](C)(C)CCOP(=O)([O-])OCCCCCCCCCCCCCCCCCCc1ccc(I)cc1 [CLR1404],Tumor Uptake,[10],No
same,Tumor Uptake,Intestinal Polyp,No
